Results: US20240228501A1, “IMIDAZOLE-CONTAINING CONDENSED RING DERIVATIVE, PREPARATION METHOD THEREFOR, AND APPLICATION THEREOF IN MEDICINE” (CHANGCHUN GENESCIENCE PHARMACEUTICAL CO., LTD., priority 2021, published 2024)

Target: T1, human NK-3 receptor (Homo sapiens, UniProt P29371)
T1 construct: expressed in transfected cells; host or cells: HEK293
T1 sequence (P29371 1-465): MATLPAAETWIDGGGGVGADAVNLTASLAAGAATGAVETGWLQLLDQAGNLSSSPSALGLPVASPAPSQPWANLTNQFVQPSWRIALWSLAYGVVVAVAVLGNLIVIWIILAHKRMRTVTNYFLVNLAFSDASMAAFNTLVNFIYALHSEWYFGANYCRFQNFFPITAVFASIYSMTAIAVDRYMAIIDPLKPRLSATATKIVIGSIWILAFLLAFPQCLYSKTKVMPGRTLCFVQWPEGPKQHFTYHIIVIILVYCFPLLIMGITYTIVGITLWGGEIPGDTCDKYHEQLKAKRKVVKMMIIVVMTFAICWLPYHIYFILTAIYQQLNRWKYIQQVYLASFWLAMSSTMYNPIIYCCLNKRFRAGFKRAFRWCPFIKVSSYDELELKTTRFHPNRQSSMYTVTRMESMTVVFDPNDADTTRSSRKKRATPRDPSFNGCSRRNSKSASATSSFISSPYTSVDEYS
Test: Antagonistic activity on human NK-3 receptor in human NK-3R/HEK293 stably transfected cells (Fluo-4, FLIPR, Neurokinin B as agonist)
Assay type: cell-based
Settings: human NK-3R/HEK293 cells
Method: Test Example 1: Determination of Activity of Compounds of the Present Invention on Human NK-3 Receptor
This method is used to determine antagonistic effects of the compounds of the present invention on the activity of human NK-3 receptor proteins expressed in cell lines stably transfected with human NK-3R/HEK293.
2.1 The cell lines stably transfected with human NK-3R/HEK293 were inoculated in a 384-well cell culture plate at a inoculation density of 12,000 cells/well/25 μL, and cultured at 37° C. and 5% CO2 overnight;
2.2 20× Component A was frozen and thawed to room temperature, diluted 2× with Assay Buffer to working concentration, and kept at room temperature for later use;
2.3 The cell culture plate was equilibrated at room temperature for 10 min, the culture medium was removed, and 20 μL of Assay Buffer and 20 μL of 2× Component A […] were added, followed by centrifugation at 200 g at room temperature for 3-5 sec, and incubation at 37° C. for 2 h;
2.4 The compound was diluted 3 times with DMSO in 384 PP_DMSO plate, and then 240 nl/well of the compound was transferred into a working plate with Echo 550, centrifugated at 200 g at room temperature for 1 min; 40 μl of Assay Buffer was added into the working plate, centrifugated at 200 g at room temperature for 1 min, and then fully mixed in an oscillator at 2500 rpm for 20 min, and then centrifugated at 200 g at room temperature for 1 min for later use;
2.5 2.5 nM Neurokinin B TFA (6×) was prepared from Assay Buffer, 50 uL of which was transferred onto 3657 plate for later use;
2.6 The cell culture plate was taken out and left to stand at room temperature for 10 min, then […] the compound diluted in step 2.4 was added into corresponding wells, and the cell culture plate was left to stand at 25° C. for 30 min; and
2.7 10 μL of the compound diluted in step 2.5 was added into the corresponding experimental wells with FLIPR Tetra, and data was collected.
The antagonistic activity of the compounds of the present invention on the human NK-3 receptor was determined through the above experiments, to obtain inhibition curves of the compounds of the present invention and determine concentrations (IC50) of the corresponding compounds that inhibit 50% of the reference agonist.

| SMILES | IC50 [nM] |
| --- | --- |
| Cc1nsc(-c2nc(N3C[C@@H](O)CC3=O)c3n2CCN(C(=O)c2ccc(F)cc2)[C@@H]3C)n1 [Compound 104, (S)-1-((R)-7-(4-fluorobenzoyl)-8-methyl-3-(3-methyl-1,2,4-thiadiazol-5-yl)-5,6,7,8-tetrahydroimidazo[1,5-a]pyrazin-1-yl)-4-hydroxypyrrolidin-2-one] | 31 |
| Cc1nsc(-c2nc(N3CCOCCC3=O)c3n2CCN(C(=O)c2ccc(F)cc2)[C@@H]3C)n1 [Compound 114, (R)-1-[7-(4-fluorobenzoyl)-8-methyl-3-(3-methyl-1,2,4-thiadiazol-5-yl)-5,6,7,8-tetrahydroimidazo[1,5-a]pyrazin-1-yl]-1,4-azepan-5-one] | 28.7 |
| CO[C@@H]1CC(=O)N(c2nc(-c3nc(C)ns3)n3c2[C@@H](C)N(C(=O)c2ccc(F)cc2)CC3)C1 [Compound 115, (R)-1-[(R)-7-(4-fluorobenzoyl)-8-methyl-3-(3-methyl-1,2,4-thiadiazol-5-yl)-5,6,7,8-tetrahydroimidazo[1,5-a]pyrazin-1-yl]-4-methoxypyrrolidin-2-one] | 22.7 |
| Cc1nsc(-c2nc(N3CCC(O)CC3=O)c3n2CCN(C(=O)c2ccc(F)cc2)[C@@H]3C)n1 (stereo partly drawn) [Compound 116, 1-[(R)-7-(4-fluorobenzoyl)-8-methyl-3-(3-methyl-1,2,4-thiadiazol-5-yl)-5,6,7,8-tetrahydroimidazo[1,5-a]pyrazin-1-yl]-4-hydroxypiperidin-2-one] | 11.9 |
| Cc1nsc(-c2nc(N3CCCCCC3=O)c3n2CCN(C(=O)c2ccc(F)cc2)[C@@H]3C)n1 [Compound 117] | 72.5 |
| C[C@@H]1c2c(N3CCCC3=O)nc(-c3nc(C(F)(F)F)cs3)n2CCN1C(=O)c1ccc(F)cc1 [Compound 118, (R)-1-(7-(4-fluorobenzoyl)-8-methyl-3-(4-(trifluoromethyl)thiazol-2-yl)-5,6,7,8-tetrahydroimidazo[1,5-a]pyrazin-1-yl)pyrrolidin-2-one] | 51.7 |
| C[C@@H]1c2c(N3C[C@H](O)CC3=O)nc(-c3nc(C(F)(F)F)cs3)n2CCN1C(=O)c1ccc(F)cc1 [Compound 120, (R)-1-((R)-7-(4-fluorobenzoyl)-8-methyl-3-(4-(trifluoromethyl)thiazol-2-yl)-5,6,7,8-tetrahydroimidazo[1,5-a]pyrazin-1-yl)-4-hydroxypyrrolidin-2-one] | 18.8 |
| Cc1nsc(-c2nc(N3CCNCC3=O)c3n2CCN(C(=O)c2ccc(F)cc2)[C@@H]3C)n1 [Compound 123, (R)-1-(7-(4-fluorobenzoyl)-8-methyl-3-(3-methyl-1,2,4-thiadiazol-5-yl)-5,6,7,8-tetrahydroimidazo[1,5-a]pyrazin-1-yl)piperazin-2-one] | 23 |
| Cc1nsc(-c2nc(N3CCCC3=O)c3n2CCN(C(=O)c2ccc(F)cc2C)[C@@H]3C)n1 [Compound 128, (R)-1-(7-(4-fluoro-2-methylbenzoyl)-8-methyl-3-(3-methyl-1,2,4-thiadiazol-5-yl)-5,6,7,8-tetrahydroimidazo[1,5-a]pyrazin-1-yl)pyrrolidin-2-one] | 84.6 |
| Cc1nsc(-c2nc(N3C[C@H](N)CC3=O)c3n2CCN(C(=O)c2ccc(F)cc2)[C@@H]3C)n1 [Compound 129] | 42.5 |
| CC(=O)N[C@@H]1CC(=O)N(c2nc(-c3nc(C)ns3)n3c2[C@@H](C)N(C(=O)c2ccc(F)cc2)CC3)C1 [Compound 132, N—{(R)-1-[(R)-7-(4-fluorobenzoyl)-8-methyl-3-(3-methyl-1,2,4-thiadiazol-5-yl)-5,6,7,8-tetrahydroimidazo[1,5-a]pyrazin-1-yl]-5-oxopyrrolidin-3-yl}acetamide] | 16.1 |
| CC(=O)O[C@@H]1CC(=O)N(c2nc(-c3nc(C)ns3)n3c2[C@@H](C)N(C(=O)c2ccc(F)cc2)CC3)C1 [Compound 133, (R)-1-[(R)-7-(4-fluorobenzoyl)-8-methyl-3-(3-methyl-1,2,4-thiadiazol-5-yl)-5,6,7,8-tetrahydroimidazo[1,5-a]pyrazin-1-yl]-5-oxopyrrolidin-3-ylacetate] | 18.6 |
| Cc1nsc(-c2nc(N3COCC3=O)c3n2CCN(C(=O)c2ccc(F)cc2)C3C)n1 (centres unmarked) [Compound 169, 3-(7-(4-fluorobenzoyl)-8-methyl-3-(3-methyl-1,2,4-thiadiazol-5-yl)-5,6,7,8-tetrahydroimidazo[1,5-a]pyrazin-1-yl)oxazolidin-4-one] | 65.7 |
| C[C@@H]1c2c(N3CCCC3=O)nc(-c3nc(CF)ns3)n2CCN1C(=O)c1ccc(F)cc1 [Compound 184, (R)-1-(7-(4-fluorobenzoyl)-3-(3-(fluoromethyl)-1,2,4-thiadiazol-5-yl)-8-methyl-5,6,7,8-tetrahydroimidazo[1,5-a]pyrazin-1-yl)pyrrolidin-2-one] | 46.5 |
| C[C@@H]1c2c(N3CCCC3=O)nc(-c3nc([C@@H](C)F)ns3)n2CCN1C(=O)c1ccc(F)cc1 [Compound 186, 1-((R)-7-(4-fluorobenzoyl)-3-(3-((R)-1-fluoroethyl)-1,2,4-thiadiazol-5-yl)-8-methyl-5,6,7,8-tetrahydroimidazo[1,5-a]pyrazin-1-yl)pyrrolidin-2-one] | 88.1 |
| Cc1nsc(-c2nc(C(F)F)c3n2CCN(C(=O)c2ccc(F)cc2)[C@@H]3C)n1 [Compound 197, (R)-(1-(difluoromethyl)-8-methyl-3-(3-methyl-1,2,4-thiadiazol-5-yl)-5,6-dihydroimidazo[1,5-a]pyrazin-7 (8H)-yl)(4-fluorophenyl)methanone] | 216 |
| Cc1nsc(-c2nc([C@H]3CCCC3=O)c3n2CCN(C(=O)c2ccc(F)cc2)[C@@H]3C)n1 [Compound 211, (R)-2-((R)-7-(4-fluorobenzoyl)-8-methyl-3-(3-methyl-1,2,4-thiadiazol-5-yl)-5,6,7,8-tetrahydroimidazo[1,5-a]pyrazin-1-yl)cyclopentan-1-one] | 284 |
| CC(=O)Cc1nc(-c2nc(C)ns2)n2c1[C@@H](C)N(C(=O)c1ccc(F)cc1)CC2 [Compound 214, (R)-1-(7-(4-fluorobenzoyl)-8-methyl-3-(3-methyl-1,2,4-thiadiazol-5-yl)-5,6,7,8-tetrahydroimidazo[1,5-a]pyrazin-1-yl)propan-2-one] | 246 |
| Cc1nsc(-c2nc(-c3ccco3)c3n2CCN(C(=O)c2ccc(F)cc2)[C@@H]3C)n1 [Compound 218, (R)-(4-fluorophenyl)(1-(furan-2-yl)-8-methyl-3-(3-methyl-1,2,4-thiadiazol-5-yl)-5,6-dihydroimidazo[1,5-a]pyrazin-7 (8H)-yl)methanone] | 225 |
| Cc1nsc(-c2nc(N3CCCC3=O)c3n2CCN(C(=O)c2cc(F)c(F)c(F)c2)[C@@H]3C)n1 [Compound 220, (R)-1-(8-methyl-3-(3-methyl-1,2,4-thiadiazol-5-yl)-7-(3,4,5-trifluorobenzoyl)-5,6,7,8-tetrahydroimidazo[1,5-a]pyrazin-1-yl)pyrrolidin-2-one] | 28 |
